In patent US20250230193A1, “CYCLIC COMPOUND HAVING SELECTIVE KRAS INHIBITORY EFFECT ON HRAS AND NRAS” (CHUGAI SEIYAKU KABUSHIKI KAISHA, priority 2022, published 2025):

Tests used:
[1] = system: human lung cancer strain NCI-H441; assay: cells; conditions: NCI-H441, 96 h, read-out: NCI-H441 IC50 (nM)
[2] = target: GDP-bound HRAS wild-type protein (Homo sapiens, UniProt P01112); assay: Binding to HRAS by surface plasmon resonance (SPR), Single Cycle Kinetics; conditions: SPR; KD ratio class
[3] = target: GDP-bound NRAS wild-type protein (Homo sapiens, UniProt P01111); assay: Binding to NRAS by surface plasmon resonance (SPR), Single Cycle Kinetics; conditions: SPR; KD ratio class
Chain of GDP-bound NRAS wild-type protein (P01111 whole entry): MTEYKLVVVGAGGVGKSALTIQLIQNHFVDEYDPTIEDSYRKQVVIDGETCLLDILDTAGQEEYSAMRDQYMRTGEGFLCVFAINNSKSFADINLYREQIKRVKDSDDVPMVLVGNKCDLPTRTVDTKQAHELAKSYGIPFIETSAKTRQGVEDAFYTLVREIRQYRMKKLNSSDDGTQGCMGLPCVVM

Chain of GDP-bound HRAS wild-type protein (P01112 whole entry): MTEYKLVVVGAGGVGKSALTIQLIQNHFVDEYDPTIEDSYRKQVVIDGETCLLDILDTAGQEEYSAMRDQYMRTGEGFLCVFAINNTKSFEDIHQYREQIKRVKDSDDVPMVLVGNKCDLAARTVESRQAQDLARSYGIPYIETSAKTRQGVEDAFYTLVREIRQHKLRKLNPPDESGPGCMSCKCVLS

Row | SMILES | IC50 [1] | HRAS/KRAS (ratio of KD value for GDP-bound HRAS wild-type protein to KD value for KRAS) [2] | NRAS/KRAS (ratio of KD value for GDP-bound NRAS wild-type protein to KD value for KRAS) [3]
1 | CCO[C@@H]1C[C@H]2C(=O)NC3(CCC3)C(=O)N(C)[C@@H](C3CCCC3)C(=O)N(C)[C@H](C(=O)N(C)C)CC(=O)N(C)[C@@H](CC3CC3)C(=O)N[C@@H]([C@@H](C)CC)C(=O)N(C)CC(=O)N(C)[C@H]3C/C=C\CCN(C3=O)[C@@H](Cc3ccc(F)cc3C)C(=O)N(C)CC(=O)N[C@@H](CCc3cc(F)c(C(F)(F)F)c(F)c3)C(=O)N2C1 [PP1528] | 45.6 nM | B (a compound having 3 or more and less than 10 is denoted as B) | A (a compound having 10 or more and less than 20 is denoted as A)
2 | CCO[C@@H]1C[C@H]2C(=O)NC3(CCC3)C(=O)N(C)[C@@H](C3CCCC3)C(=O)N(C)[C@H](C(=O)N3CCCC3)CC(=O)N(C)[C@@H](CC(C)C)C(=O)N[C@@H]([C@@H](C)CC)C(=O)N(C)CC(=O)N(C)[C@H]3C/C=C\CCN(C3=O)[C@@H](Cc3ccc(C)cc3)C(=O)N(C)CC(=O)N[C@@H](CCc3cc(F)c(C(F)(F)F)c(F)c3)C(=O)N2C1 [PP1416] | 3.8 nM | A (a compound having 10 or more and less than 20 is denoted as A) | A (a compound having 10 or more and less than 20 is denoted as A)
3 | CC[C@H](C)[C@@H]1NC(=O)[C@H](CC2CC2)N(C)C(=O)C[C@@H](C(=O)N(C)C)N(C)C(=O)[C@H](C2CCCC2)N(C)C(=O)C2(CC(C)(C)C2)NC(=O)[C@@H]2C[C@@H](C(F)(F)F)CN2C(=O)[C@H](CCc2cc(F)c(C(F)(F)F)c(F)c2)NC(=O)CN(C)C(=O)[C@H](Cc2ccc(F)cc2)N2CC/C=C\C[C@@H](C2=O)N(C)C(=O)CN(C)C1=O [PP1507] | 16.2 nM | A (a compound having 10 or more and less than 20 is denoted as A) | A (a compound having 10 or more and less than 20 is denoted as A)
4 | CC[C@H](C)[C@@H]1NC(=O)[C@H](CC2CC2)N(C)C(=O)C[C@@H](C(=O)N(C)C)N(C)C(=O)[C@H](C2CCCC2)N(C)C(=O)C2(CCCC2)NC(=O)[C@@H]2CCCN2C(=O)[C@H](CCc2ccc(C(F)(F)F)c(Cl)c2)NC(=O)CN(C)C(=O)[C@H](Cc2ccc(C(F)(F)F)cc2)N2C[C@H](C)CC[C@@H](C2=O)N(C)C(=O)CN(C)C1=O [PP1346] | 7.2 nM | B (a compound having 3 or more and less than 10 is denoted as B) | B (a compound having 3 or more and less than 10 is denoted as B)
5 | CCC[C@H]1C(=O)N[C@@H]([C@@H](C)CC)C(=O)N(C)CC(=O)N(C)[C@H]2C/C=C\CCN(C2=O)[C@@H](Cc2ccc(C(F)(F)F)cc2)C(=O)N(C)CC(=O)N[C@@H](CCc2ccc3sccc3c2)C(=O)N2C[C@H](OCC)C[C@H]2C(=O)NC2(CCC2)C(=O)N(C)[C@@H](C(CC)CC)C(=O)N(C)[C@H](C(=O)N(C)C)CC(=O)N1C [PP1224] | 122 nM | A (a compound having 10 or more and less than 20 is denoted as A) | A (a compound having 10 or more and less than 20 is denoted as A)
6 | CCO[C@@H]1C[C@H]2C(=O)NC3(CCC3)C(=O)N(C)[C@@H](C(CC)CC)C(=O)N(C)[C@H](C(=O)N(C)C)CC(=O)N(C)[C@@H](CC3CCCC3)C(=O)N[C@@H]([C@@H](C)CC)C(=O)N(C)CC(=O)N(C)[C@H]3C/C=C\CCN(C3=O)[C@@H](Cc3ccc(F)cc3)C(=O)N(C)CC(=O)N[C@@H](CCc3cc(F)c(C(F)(F)F)c(F)c3)C(=O)N2C1 [PP1517] | 33.6 nM | A (a compound having 10 or more and less than 20 is denoted as A) | A (a compound having 10 or more and less than 20 is denoted as A)
7 | CCO[C@@H]1C[C@H]2C(=O)NC3(CCC3)C(=O)N(C)[C@@H](C3CCCC3)C(=O)N(C)[C@H](C(=O)N3CCOCC3)CC(=O)N(C)[C@@H](CC3CC3)C(=O)N[C@@H]([C@@H](C)CC)C(=O)N(C)CC(=O)N(C)[C@H]3C/C=C\CCN(C3=O)[C@@H](Cc3ccc(C)cc3)C(=O)N(C)CC(=O)N[C@@H](CCc3cc(F)c(C(F)(F)F)c(F)c3)C(=O)N2C1 [PP1408] | 37.6 nM | A (a compound having 10 or more and less than 20 is denoted as A) | A (a compound having 10 or more and less than 20 is denoted as A)
8 | CCO[C@@H]1C[C@H]2C(=O)NC3(CCC3)C(=O)N(C)[C@@H](C3CCCC3)C(=O)N(C)[C@H](C(=O)N(C)C)CC(=O)N(C)[C@@H](CC)C(=O)N[C@@H]([C@@H](C)CC)C(=O)N(C)CC(=O)N(C)[C@H]3C/C=C\CCN(C3=O)[C@@H](Cc3ccc(C(F)(F)F)cc3)C(=O)N(C)CC(=O)N[C@@H](CCc3cc(F)c(Cl)c(F)c3)C(=O)N2C1 [PP1262] | 56.7 nM | B (a compound having 3 or more and less than 10 is denoted as B) | A (a compound having 10 or more and less than 20 is denoted as A)
9 | CCO[C@@H]1C[C@H]2C(=O)NC3(CCCC3)C(=O)N(C)[C@@H](C3CCCC3)C(=O)N(C)[C@H](C(=O)N(C)C)CC(=O)N(C)[C@@H](CC)C(=O)N[C@@H]([C@@H](C)CC)C(=O)N(C)CC(=O)N(C)[C@H]3C[C@@H](C)[C@@H](C)CN(C3=O)[C@@H](Cc3ccc(C(F)(F)F)cc3)C(=O)N(C)CC(=O)N[C@@H](CCc3cc(F)c(C(F)(F)F)c(F)c3)C(=O)N2C1 [PP1352] | 4.6 nM | B (a compound having 3 or more and less than 10 is denoted as B) | A (a compound having 10 or more and less than 20 is denoted as A)
10 | CC[C@H](C)[C@@H]1NC(=O)[C@H](CC2CC2)N(C)C(=O)C[C@@H](C(=O)N2CCOCC2)N(C)C(=O)[C@H](C2CCCC2)N(C)C(=O)C2(CCCC2)NC(=O)[C@@H]2CCCN2C(=O)[C@H](CCc2ccc(C(F)(F)F)c(Cl)c2)NC(=O)CN(C)C(=O)[C@H](Cc2ccc(C(F)(F)F)cc2)N2C[C@H](C)CC[C@@H](C2=O)N(C)C(=O)CN(C)C1=O [PP1343] | 19.3 nM | B (a compound having 3 or more and less than 10 is denoted as B) | A (a compound having 10 or more and less than 20 is denoted as A)
11 | CCO[C@@H]1C[C@H]2C(=O)NC3(CCC3)C(=O)N(C)[C@@H](C3CCCC3)C(=O)N(C)[C@H](C)CC(=O)N(C)[C@@H](CC3CCCC3)C(=O)N[C@@H]([C@@H](C)CC)C(=O)N(C)CC(=O)N(C)[C@H]3C/C=C\CCN(C3=O)[C@@H](Cc3ccc(F)cc3)C(=O)N(C)CC(=O)N[C@@H](CCc3cc(F)c(C(F)(F)F)c(F)c3)C(=O)N2C1 [PP1492] | 129 nM | B (a compound having 3 or more and less than 10 is denoted as B) | B (a compound having 3 or more and less than 10 is denoted as B)
